The values that follow come from article PMC8621172, “Manipulating Estrogenic/Anti-Estrogenic Activity of Triphenylethylenes towards Development of Novel Anti-Neoplastic SERMs” (International Journal of Molecular Sciences, 2021).

As usually defined, the GI50 is the concentration giving 50% growth inhibition. The low end stands for greater sensitivity of the cells, the high end for lower sensitivity of the cells. As a reminder, the inhibition is the share of the control response that was lost under treatment.

One assay deals with ER. As to conditions: fold over TAM; cited from earlier work.
A further assay deals with renal cell lines. Description: NCI five-dose assay, renal subpanel. Format: cell-based. As to conditions: Homo sapiens. On the procedure: (§1) All compounds were subjected to the NCI in vitro disease-oriented human cells screening panel assay. The human tumor cell lines of the cancer-screening panel are grown in RPMI 1640 medium containing 5% fetal bovine serum and 2 mM L-glutamine. For a typical screening experiment, cells are inoculated into 96-well microtiter plates in 100 μL at plating densities ranging from 5000 to 40,000 cells/well depending on the doubling time of individual cell lines. After cell inoculation, the microtiter plates are incubated at 37 °C, 5% CO2, 95% air, and 100% relative humidity for 24 h prior to the addition of experimental drugs. After 24 h, two plates of each cell line are fixed in situ with TCA to represent a measurement of the cell population for each cell line at the time of drug addition. Experimental drugs are solubilized in dimethyl sulfoxide at 400-fold the desired final maximum test concentration and stored frozen prior to use. At the time of drug addition, an aliquot of frozen concentrate is thawed and diluted to twice the desired final maximum test concentration with complete medium containing 50 μg/mL gentamicin. […] Bound stain is subsequently solubilized with a 10 mM trizma base, and the absorbance is read on an automated plate reader at a wavelength of 515 nm. […] Three response parameters (GI50, TGI, and LC50) were calculated for each cell line.

The next assay deals with colon cancer cell lines. As to the kind of experiment: NCI five-dose assay, colon cancer subpanel. It is filed as cell-based. As to conditions: Homo sapiens. The method, then:
as §1

Another assay relates to prostate cell lines. Description: NCI five-dose assay, prostate subpanel. Format: cell-based. The following applies: Homo sapiens. The method, then: as §1
For a further assay, the system named is NSCLC cell lines. As to the kind of experiment: NCI five-dose assay, NSCLC subpanel. As to conditions: Homo sapiens. It is filed as cell-based. The method, then:
as §1

For another assay, the system named is MCF-7 cells. Description: NCI growth inhibition on MCF-7 (single dose and five-dose, SRB). It is filed as cell-based, human. The following applies: Homo sapiens, MCF7. On the procedure: Compounds were submitted to the Developmental Therapeutics Program (DTP) of the National Cancer Institute (NCI). The program uses a panel of 60 human tumor cell lines representing nine tissue types, including leukemia, non-small cell lung cancer (NSCLC), melanoma, colon cancer, ovarian cancer, CNS cancer, renal cancer, prostate cancer, and breast cancer, to screen for potential new anti-cancer agents. […] Primary screening of synthesized compounds was performed by testing a single high dose of 10 µM in the full NCI-60 panel. The percent growth of treated cells relative to the no-drug control and relative to the time zero number of cells was measured, and a mean graph was provided. The percentage inhibition was then calculated by subtracting the values obtained from 100.
All compounds were subjected to the NCI in vitro disease-oriented human cells screening panel assay. The human tumor cell lines of the cancer-screening panel are grown in RPMI 1640 medium containing 5% fetal bovine serum and 2 mM L-glutamine. For a typical screening experiment, cells are inoculated into 96-well microtiter plates in 100 μL at plating densities ranging from 5000 to 40,000 cells/well depending on the doubling time of individual cell lines. After cell inoculation, the microtiter plates are incubated at 37 °C, 5% CO2, 95% air, and 100% relative humidity for 24 h prior to the addition of experimental drugs. After 24 h, two plates of each cell line are fixed in situ with TCA to represent a measurement of the cell population for each cell line at the time of drug addition. Experimental drugs are solubilized in dimethyl sulfoxide at 400-fold the desired final maximum test concentration and stored frozen prior to use. At the time of drug addition, an aliquot of frozen concentrate is thawed and diluted to twice the desired final maximum test concentration with complete medium containing 50 μg/mL gentamicin. Additional four, 10-fold, or ½ log serial dilutions are made to provide a total of five drug concentrations plus control. Aliquots of 100 μL of these different drug dilutions are added to the appropriate microtiter wells already containing 100 μL of medium, resulting in the required final drug concentrations. Following drug addition, the plates are incubated for an additional 48 h at 37 °C, 5% CO2, 95% air, and 100% relative humidity. For adherent cells, the assay is terminated by the addition of cold TCA. Cells are fixed in situ by the gentle addition of 50 μL of cold 50% (w/v) TCA (final concentration, 10% TCA) and incubated for 60 min at 4 °C. The supernatant is discarded, and the plates are washed five times with tap water and air-dried. Sulforhodamine B (SRB) solution (100 μL) at 0.4% (w/v) in 1% acetic acid is added to each well, and plates are incubated for 10 min at room temperature. After staining, unbound dye is removed by washing five times with 1% acetic acid, and the plates are air-dried. Bound stain is subsequently solubilized with a 10 mM trizma base, and the absorbance is read on an automated plate reader at a wavelength of 515 nm. For suspension cells, the methodology is the same except that the assay is terminated by fixing settled cells at the bottom of the wells by gently adding 50 μL of 80% TCA (final concentration, 16% TCA). Compounds are screened at a dose of 10 µM, hits showing mean growth inhibition over 60 cell lines >50% are escalated for 5-dose screening assay. To construct a dose-response curve, about 60 cell lines of nine tumor subpanels were incubated with five concentrations (0.01–100 μM) for each compound. Three response parameters (GI50, TGI, and LC50) were calculated for each cell line.

For the compound `CC/C(=C(\c1ccc(O)cc1)c1ccc(OCCNC)cc1)c1ccccc1` [endoxifen], the “affinity to the ER compared to the parent drug TAM (times)” value with ER is listed as 100.
`CC/C(=C(\c1ccc(O)cc1)c1ccc(OCCN(C)C)cc1)c1ccccc1` [Compound 4-OH-TAM, 4-hydroxy-TAM]: the “affinity to the ER compared to the parent drug TAM (times)” value in the assay on ER is listed as 100.
For `CC/C(=C(\c1ccccc1)c1ccc(OCCN(C)C)cc1)c1ccccc1` [TAM, Tamoxifen, reference compound], the GI50 with renal cell lines turned out to be 5 µM; with colon cancer cell lines, 6.31 µM; in the assay on prostate cell lines, 5.35 µM; with NSCLC cell lines it was 6.31 µM; with MCF-7 cells (MCF-7, five-dose assay, 48 h), 1.58 µM. In the assay with MCF-7 cells (10 µM), this compound showed an inhibition at 10 µM greater than 100%.
